Test results published in ChEMBL document CHEMBL5375946, “Discovery of KB-0742, a Potent, Selective, Orally Bioavailable Small Molecule Inhibitor of CDK9 for MYC-Dependent Cancers” (J Med Chem, 2023).

What was measured:
in vitro [1] = details: dog, liver microsomes
in vitro [2] = details: mouse, plasma
in vitro [3] = details: human, plasma
in vitro [4] = details: dog, plasma
in vitro [5] = details: rat, plasma

Compound `CCC(CC)c1cc(N[C@H]2CC[C@H](N)C2)n2nccc2n1` [ISTISOCICLIB] has a remaining at 3 h (in vitro [1]) of 68.8%, a fraction unbound at 10 µM (in vitro [2]) of 0.52 and a fraction unbound at 10 µM (in vitro [3]) of 0.62. It also gave a fraction unbound at 10 µM (in vitro [4]) of 0.28 and a fraction unbound at 10 µM (in vitro [5]) of 0.59.
